This is an account of results in patent publication US20250353891A1 (MEDIMMUNE LIMITED, priority 2022, published 2025).

Data set [1] addresses human GLP-1 receptor (hGLP-1R) (Homo sapiens, UniProt P43220). Kind of data set: cAMP production (HTRF) in CHO cells expressing hGLP-1R. Particulars: for EC50: cAMP in CHO hGLP-1R cells, geometric mean, read-out: hGLP-1R EC50; for % Relative Potency Ratio: % GLP-1R activity relative to GLP-1 / % GlucR activity relative to glucagon. It counts as cell-based. Also noted: expressed in transfected cells. The method in brief: (§1)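 Cells were resuspended in assay buffer at batch-optimized density, typically 1×10^5 cells/mL for hGLP-1R and 2×10^5 cells/mL for hGCGR. After 30 min incubation at room temperature with compound, cAMP was measured by two-step HTRF. EC50 values came from 4-parameter logistic fits of % Delta F.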

Data set [2] can be described thus: in vivo. Particulars: male, C57BL/6, mouse, 10 nmol/kg; for half-life: iv. An excerpt:
(§2) Selected test peptides (n=8) were profiled for pharmacokinetic (PK) properties in the mouse after single intravenous (i.v.) or subcutaneous (s.c.) dose. A subset (n=4) meeting the acceptance criteria was subsequently profiled in the dog (single i.v. dose) and non-human primate (single i.v. and s.c. dose). […] Low-binding plasticware containers were used during preparation and sample handling to avoid non-specific binding.
After dosing, PK samples were collected from the dorsal metatarsal vein. Blood of each sample was transferred into plastic micro centrifuge tubes containing EDTA-K2, inverted several times for proper mixing of contents and then placed on wet ice. The blood samples were centrifuged at 4° C. to obtain plasma and stored at −75° C. prior to analysis.
(§3) Samples analysis: Samples were analyzed by LC-MS/MS. Calibration standards were injected at the beginning and end of each batch and the determined concentration for each prepared standard was used to construct a calibration curve. Plasma and dose aliquot sample concentrations were determined from the plasma calibration curve.
(§4) Data analysis: Plasma concentration data was analyzed by non-compartmental analysis (NCA) using Phoenix Winnonlin v. 8.3.3.33. Linear trapezoidal rule was used for increasing values and log trapezoidal rule was used for decreasing values, applying uniform weighting for lambda_z calculations. Subcutaneous bioavailability was calculated as the ratio AUC(s.c.)0-inf/AUC(i.v.)0-inf. Reported values (Table 18) represent the mean of the individual estimates.

Data set [3] is described as follows: in vivo. Particulars: male, cynomolgus monkey, 10 nmol/kg; for half-life: iv.
From the text: as §2
Non-human primate: PK was studied in non-naïve male cynomolgus monkeys. After dosing, PK samples were collected from the femoral vein. Blood of each sample was transferred into plastic micro centrifuge tubes containing EDTA-K2, inverted several times for proper mixing of contents and then placed on wet ice. The blood samples were centrifuged under refrigerated (2° C. to 8° C.) conditions within 30 minutes following sample collection to obtain plasma and stored at −60° C. to −90° C.° C. prior to analysis.
as §3, §4

Data set [4] has as its target human glucagon receptor (hGCGR) (Homo sapiens, UniProt P47871). Kind of data set: cAMP production (HTRF) in CHO cells expressing hGCGR. Particulars: cAMP in CHO hGCGR cells, geometric mean, read-out: hGluc-R EC50. More on the design: expressed in transfected cells. It counts as cell-based. The method in brief: as §1
Data set [5] in a line: in vivo. Particulars: male, Beagle, dog, iv, 10 nmol/kg.
From the text: as §2
Blood of each sample was transferred into plastic micro centrifuge tubes containing EDTA-K2, inverted several times for proper mixing of contents and then placed on wet ice.
as §3, §4

The subject of data set [6] is wildtype (WT) mice. As to the kind of experiment: Glucose change in wildtype mice. It counts as in vivo, mouse. Particulars: s.c.; for WT % glucose change 60 min: 60 min vs 0 min, no somatostatin pretreatment; for WT % glucose change 120 min: 120 min vs 0 min, somatostatin pretreatment (octreotide) 30 min prior to cpd. The method in brief: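 Wildtype mice aged 8-14 weeks, fasted 2 h, sometimes pre-treated with octreotide 10 mg/kg 30 min before peptide injection. Blood glucose by glucometer at -30, 0, 30, 60, 120, 180, 240 and 360 min; n=4-8/group, mice reused up to 3 times with ≥1 week wash-out.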

The test system of data set [7] is GLP-1R knockout (KO) mice. Kind of data set: Glucose change in GLP-1R knockout mice. It counts as in vivo, mouse. Particulars: GLP-1R KO mice, s.c.; for GLP-1R KO % glucose change - 60 min: 60 min vs 0 min, no somatostatin pretreatment; for GLP-1R KO % glucose change 120 min: 120 min vs 0 min, somatostatin pretreatment (octreotide) 30 min prior to cpd. The method in brief: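 GLP-1R knockout mice (n=4-8/group, sorted by body weight) were fasted 2 h, and in some studies pretreated with octreotide 10 mg/kg 30 min before peptide injection. Mice were reused up to 3 times with at least 1-week wash-out.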

A short description of data set [8]: Mouse acute food intake study. It counts as in vivo. Particulars: male C57Bl/6 mice, s.c., cumulative food intake at 24 hr vs vehicle. The method in brief:
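Peptide or vehicle went subcutaneously (5 mL/kg) to 6-8 h-fasted male C57Bl/6 mice shortly before the dark phase, with groups balanced on body weight and 24-hour intake. Cumulative food consumption was derived from 48 h of automated BioDaq monitoring with free food and water access.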

Data set [9] addresses T1, porcine pancreatic pepsin (Sus scrofa, UniProt P00791).
T1 construct: purchased Sigma P7012
Kind of data set: Proteolytic resistance to FasSSGF containing porcine pancreatic pepsin. It counts as in vitro ADME. Particulars: FasSSGF with pepsin, 37° C., 0 min. The method in brief:
(§5)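 Peptide (250 μM stock in FasSSGF) mixed 1:1 with porcine pepsin stock (0.5 mg/mL in FasSSGF) and held at 37° C; samples at 0, 5, 10, 15 and 30 min quenched in ammonium bicarbonate, pH 8. Intact peptide remaining estimated by RP-HPLC peak area, UV 210 nm.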

Assay in data set [10]: as above
It counts as in vitro ADME. Particulars: pig, simulated gastric fluid, FasSSGF with pepsin, 37° C., read-out: % intact peptide over time (min). The method in brief:
as §5

The test system of data set [11] is Pancreatin. Kind of data set: Proteolytic resistance to FasSSIF/Pancreatin. Particulars: FasSSIF/Pancreatin, 37° C., 0 min. It counts as in vitro ADME. In a few lines: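 Peptide (1.0 mg) in pre-warmed FasSSIF, proteolysis started with fresh FasSSIF/USP Pancreatin and held at 37 °C. Aliquots at 0, 5, 10, 15, 30 min quenched in 10% TFA; remaining intact peptide estimated by RP-HPLC peak area, UV 210 nm.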

The mark [12] stands for this setting: Table 6, peptides modified at position 17.
The mark [13] stands for this setting: Table 7, peptides modified at position 20.

“And” between values parts separate entries of the source, which are not always exact repeats. Equal values may be shown once. Read-outs that look alike come from different tables or passages of the source. Starred links: 1 amine or outer side, 2 acyl side, 3 side chain; linkers in the order of their positions; H or OH if unused. Non-standard residues stand in square brackets, D forms with d. Residues, ends and D or L forms follow the SMILES beside them. Groups on a side chain read outwards from the residue. *: point of attachment. C18 diacid = O=C(O)CCCCCCCCCCCCCCCCC(=O)*; γGlu = O=C(O)[C@H](CCC(=O)[*:2])N[*:1]; αMeF = C[C@](N)(Cc1ccccc1)C(=O)O; AEEA = NCCOCCOCC(=O)O; Aib = CC(C)(N)C(=O)O

human GLP-1 receptor (hGLP-1R), sequence (P43220 24-463): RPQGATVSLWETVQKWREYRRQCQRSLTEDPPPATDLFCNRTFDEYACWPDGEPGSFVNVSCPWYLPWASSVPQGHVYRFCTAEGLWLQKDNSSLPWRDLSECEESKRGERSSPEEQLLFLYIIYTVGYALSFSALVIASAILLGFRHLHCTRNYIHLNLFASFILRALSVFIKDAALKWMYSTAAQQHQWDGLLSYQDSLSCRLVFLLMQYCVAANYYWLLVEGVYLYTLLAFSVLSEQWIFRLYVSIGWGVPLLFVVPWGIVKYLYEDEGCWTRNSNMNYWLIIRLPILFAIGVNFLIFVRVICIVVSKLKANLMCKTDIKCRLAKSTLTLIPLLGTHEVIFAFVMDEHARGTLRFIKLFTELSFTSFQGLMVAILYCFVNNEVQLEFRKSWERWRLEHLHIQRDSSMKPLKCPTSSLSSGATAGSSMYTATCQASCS
human glucagon receptor (hGCGR), sequence (P47871 26-477): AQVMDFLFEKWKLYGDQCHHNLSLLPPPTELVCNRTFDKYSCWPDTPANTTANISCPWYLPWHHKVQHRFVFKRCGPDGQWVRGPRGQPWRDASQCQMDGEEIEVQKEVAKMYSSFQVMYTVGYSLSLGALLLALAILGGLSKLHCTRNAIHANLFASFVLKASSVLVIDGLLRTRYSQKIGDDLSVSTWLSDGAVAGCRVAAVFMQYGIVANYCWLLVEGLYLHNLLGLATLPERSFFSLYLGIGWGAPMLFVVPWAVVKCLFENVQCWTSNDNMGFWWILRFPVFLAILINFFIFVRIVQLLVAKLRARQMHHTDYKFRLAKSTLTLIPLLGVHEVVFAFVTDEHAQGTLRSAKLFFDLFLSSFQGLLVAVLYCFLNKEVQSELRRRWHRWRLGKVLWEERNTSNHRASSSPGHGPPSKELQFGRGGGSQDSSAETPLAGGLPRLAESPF
T1 sequence (P00791 60-385): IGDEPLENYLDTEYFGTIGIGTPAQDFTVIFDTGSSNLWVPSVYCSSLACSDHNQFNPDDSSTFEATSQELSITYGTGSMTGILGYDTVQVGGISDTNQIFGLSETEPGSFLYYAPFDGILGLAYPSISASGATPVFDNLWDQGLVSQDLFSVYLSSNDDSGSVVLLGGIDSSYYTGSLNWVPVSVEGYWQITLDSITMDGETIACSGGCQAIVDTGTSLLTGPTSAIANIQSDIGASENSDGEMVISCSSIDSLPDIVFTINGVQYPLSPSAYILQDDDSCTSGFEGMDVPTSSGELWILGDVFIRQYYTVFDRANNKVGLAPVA

By EC50 is commonly meant the concentration giving half of the maximal effect. The half-life is the time in which the quantity being followed falls by half. Lower therefore signals fast loss. Turning to `CC(C)C[C@H](NC(=O)[C@H](Cc1c[nH]c2ccccc12)NC(=O)[C@H](CCC(N)=O)NC(=O)[C@@H](NC(=O)[C@H](Cc1ccccc1)NC(=O)[C@H](CC(=O)O)NC(=O)[C@H](CCCNC(=N)N)NC(=O)[C@H](C)NC(=O)[C@H](CCCNC(=N)N)NC(=O)[C@H](CCCCNC(=O)COCCOCCNC(=O)COCCOCCNC(=O)CC[C@H](NC(=O)CCCCCCCCCCCCCCCCC(=O)O)C(=O)O)NC(=O)[C@@H](NC(=O)[C@H](CC(=O)O)NC(=O)[C@H](CC(C)C)NC(=O)[C@](C)(Cc1ccccc1)NC(=O)[C@H](CCCCN)NC(=O)[C@H](CO)NC(=O)[C@@H](NC(=O)[C@H](CC(=O)O)NC(=O)[C@H](CO)NC(=O)[C@@H](NC(=O)[C@H](Cc1ccccc1)NC(=O)[C@@H](NC(=O)CNC(=O)[C@H](CCC(N)=O)NC(=O)C(C)(C)NC(=O)[C@@H](N)Cc1c[nH]cn1)[C@@H](C)O)[C@@H](C)O)C(C)C)[C@@H](C)O)C(C)C)C(=O)N[C@@H](CC(C)C)C(=O)N[C@@H](CCC(=O)O)C(=O)NC(C)(C)C(=O)NCC(=O)O` [Peptide 188, H-Aib-Q-G-T-F-T-S-D-V—S-K-αMePhe-L-D-T-K-R-A-R-D-F-V-Q-W-L-L-E-Aib-G-acid], the EC50 was determined as 0.0208 nM in data set [1] (setting [12]) and 0.0347 nM in data set [4] (setting [12]). Also, the “% Relative Potency Ratio” value in data set [1] (Table 6) came out at 3.3. In addition, the figures for the bioavailability in data set [2] and in [3] were 98% and 79%, respectively. Also, the values for the half-life in data set [2], in data set [3] and in [5] were 474 min, 2.79 days and 2.96 days, respectively. The entries for the “WT % glucose change 60 min” value in [6] (10 nmol/kg) and in [6] (30 nmol/kg) were −23.2% and −31.3%, respectively. For the same molecule, the “GLP-1R KO % glucose change - 60 min” value in [7] (10 nmol/kg) is recorded as 64%; in data set [7] (30 nmol/kg), 44.6%. The “24 hr % Vehicle Food Intake” value in data set [8] (dose 1 nmol/kg) is 99.9%; in data set [8] (dose 3 nmol/kg), 80.6%; in data set [8] (dose 10 nmol/kg), 60.7% and 49.8%.
In the case of `CC[C@H](C)[C@H](NC(=O)C(C)(C)NC(=O)[C@H](CCC(N)=O)NC(=O)[C@@H](NC(=O)[C@](C)(Cc1ccccc1)NC(=O)[C@H](CC(=O)O)NC(=O)[C@H](CCCCNC(=O)COCCOCCNC(=O)COCCOCCNC(=O)CC[C@H](NC(=O)CCCCCCCCCCCCCCCCC(=O)O)C(=O)O)NC(=O)[C@H](C)NC(=O)[C@H](C)NC(=O)[C@H](CCCNC(=N)N)NC(=O)[C@H](CO)NC(=O)[C@H](CC(=O)O)NC(=O)[C@H](CC(C)C)NC(=O)[C@](C)(Cc1ccccc1)NC(=O)[C@H](CCCCN)NC(=O)[C@H](CO)NC(=O)[C@@H](NC(=O)[C@H](CC(=O)O)NC(=O)[C@H](CO)NC(=O)[C@@H](NC(=O)[C@](C)(Cc1ccccc1)NC(=O)[C@H](CO)NC(=O)CNC(=O)[C@H](Cc1c[nH]cn1)NC(=O)C(C)(C)NC(=O)[C@@H](N)Cc1c[nH]cn1)[C@@H](C)O)C(C)C)C(C)C)C(=O)N[C@@H](C)C(=O)N[C@@H](CC(N)=O)C(=O)N[C@H](C(N)=O)[C@@H](C)O` [Peptide 224, H-Aib-H-G-S-αMePhe-T-S-D-V—S-K-αMePhe-L-D-S-R-A-A-K (E-(O2Oc)-(O2Oc)-γE-C18diacid) 20-D-αMePhe-V-Q-Aib-I-A-N-T-amide] (H-H[Aib]HGS[αMeF]TSDVSK[αMeF]LDSRAAK([AEEA-AEEA-γGlu-C18 diacid])D[αMeF]VQ[Aib]IANT-NH2; N-terminus assumed), the EC50 in data set [1] (setting [13]) amounted to 0.0321 nM; in [4] (setting [13]) it was 0.0287 nM. Moreover, the “% Relative Potency Ratio” value in data set [1] (Table 7) is given as 1.8. Also, the bioavailability was determined as 109% in data set [2] and 95% in data set [3]. The half-life in [2] was 570 min; in data set [3], 4.17 days; in [5], 3.12 days. For the same molecule, the “WT % glucose change 120 min” value in data set [6] (3 nmol/kg) is recorded as −46.3%; in data set [6] (10 nmol/kg), −40.0%. The “GLP-1R KO % glucose change 120 min” value is on record as 100.3% in data set [7] (3 nmol/kg) and 132.3% in [7] (10 nmol/kg). In addition, the “24 hr % Vehicle Food Intake” value in [8] (dose 1 nmol/kg) is 91.3%; in [8] (dose 3 nmol/kg) it was 76.6%; in [8] (dose 10 nmol/kg), 66.5% and 72.5%.
As for `CC[C@H](C)[C@H](NC(=O)[C@H](Cc1ccccc1)NC(=O)[C@H](CCC(=O)O)NC(=O)[C@H](CCCCNC(=O)COCCOCCNC(=O)COCCOCCNC(=O)CC[C@H](NC(=O)CCCCCCCCCCCCCCCCC(=O)O)C(=O)O)NC(=O)[C@H](C)NC(=O)[C@H](C)NC(=O)[C@H](CCC(N)=O)NC(=O)CNC(=O)[C@H](CCC(=O)O)NC(=O)[C@H](CC(C)C)NC(=O)[C@H](Cc1ccc(O)cc1)NC(=O)[C@H](CO)NC(=O)[C@H](CO)NC(=O)[C@@H](NC(=O)[C@H](CC(=O)O)NC(=O)[C@H](CO)NC(=O)[C@@H](NC(=O)[C@H](Cc1ccccc1)NC(=O)[C@@H](NC(=O)CNC(=O)[C@H](CCC(=O)O)NC(=O)C(C)(C)NC(=O)[C@@H](N)Cc1cnc[nH]1)[C@@H](C)O)[C@@H](C)O)C(C)C)C(=O)N[C@@H](C)C(=O)N[C@@H](Cc1c[nH]c2ccccc12)C(=O)N[C@@H](CC(C)C)C(=O)N[C@H](C(=O)N[C@@H](CCCNC(=N)N)C(=O)NCC(=O)N[C@@H](CCCNC(=N)N)C(=O)NCC(=O)O)C(C)C` [semaglutide, reference compound], the “% intact peptide over time (min)” value in data set [9] and in [11] was 100% throughout. Further, the remaining at 5 min, 125 µM in [10] (5 min) was 15%. Further, the remaining at 10 min, 125 µM in data set [10] (10 min) was 13%. Also, the remaining at 0.25 h, 125 µM in data set [10] (15 min) was 12%. Also, the remaining at 0.5 h, 125 µM in data set [10] (30 min) was 14%.
